≈ marks a conversion by molar mass, not a printed value. Read-outs that look alike come from different tables or passages of the source.
Columns and labels:
[1] = test system: mitogen or antigen stimulated murine or human lymphocytes; experiment: Lymphocyte aggregation assay (PHA-PMA mitogen stimulated); type: cell-based; details: aggregates of greater than 100 cells, PHA-PMA stimulation; for minimal effective concentration: Homo sapiens, Lymphocyte, 12 h, read-out: Aggregation Assay Minimum Effective Conc.
Experimental: (§1) Immunomodulatory 3-aminosteroids (FIGS. 3–7 and Table I) were identified in vitro based on their ability to inhibit homo- or hetero-typic aggregation and subsequent proliferation of mitogen or antigen stimulated murine or human lymphocytes. Human or mouse lymphocytes were isolated from peripheral blood by Ficoll-Hypaque as described (Stoeckert et al., (1990) Exp. Hematol. 18. 1164–1170). For mitogen stimulation, 1×10^5 cells per well were plated in varying amounts of 3-aminosteroid compounds and assayed for aggregation and proliferation after twelve hours of stimulation by PHA-PMA mitogens. […] For antigen stimulation, lymphocytes were isolated from BALBc mice which had been sensitized to Aspergillus fumigatus antigen for three weeks and plated at 1×10^5 cells per well with or without 100 units of Aspergillus fulmigatus antigen. Cells were grown for three days and then scored for cellular aggregates and proliferation as described above in the presence or absence of increasing amounts of Compound-B or analogue compounds. […] Similar results were obtained in assays using antigen mediated response to compounds (not shown). […] All of the active compounds shown in Table I as well as rational modifications of these compounds as depicted in FIGS. 8–10 are embodiments of the invention

[2] = test system: mitogen or antigen stimulated murine or human lymphocytes; experiment: PBMC proliferation assay (tritiated thymidine incorporation); type: cell-based; details: for IC50: Homo sapiens, Lymphocyte
Experimental: as §1

D2 naive mice = experiment: Bronchial hyperresponsiveness in D2 naive mice (APTI); type: in vivo, mouse; details: ip, FIG. 14
Experimental: DBA2, C57BL6 or B6D2F1 mice, five to six weeks of age, were obtained from the National Cancer Institute or Jackson Laboratories. Animals were housed in high-efficiency particulate filtered air laminar flow hoods in a virus and antigen free facility and allowed free access to pelleted rodent chow and water for three to seven days prior to experimental manipulation. The animal facilities were maintained at 22° C. and the light:dark cycle is automatically controlled (10:14 hour cycle).
Phenotyping and efficacy of pretreatment. Animals either received no pretreatment or were sensitized by nasal aspiration of Aspergillus fumigatus antigen to assess the effect on bronchial hyperresponsiveness, bronchoalveolar lavage and serum IgE. Mice were challenged with Aspergillus or saline intranasally (Monday, Wednesday and Friday for three weeks) and phenotyped twenty-four hours after the last dose. The effect of pretreatment by aminosteroids was used to assess the effect of down-regulating the IL-9 pathway in mice. To determine the bronchoconstrictor response, respiratory system pressure was measured at the trachea and recorded before and during exposure to the drug. Mice were anesthetized and instrumented as previously described. (Kleeberger et al., (1990) Am. J. Physiol. 258, L313–320; Levitt et al., (1995) Clin. Exp. Allergy 25, 61–63; Ewart et al., (1995) J. Appl. Physiol. 79, 560–566). Airway responsiveness was measured to one or more of the following: 5-hydroxytryptamine, acetylcholine, atracurium or a substance-P analogue. A simple and repeatable measure of the change in peak inspiratory pressure following bronchoconstrictor challenge was used which has been termed the Airway Pressure Time Index (APTI). The APTI was assessed by the change in peak respiratory pressure integrated from the time of injection until the peak pressure returns to baseline or plateau.
Active compounds identified in vitro were tested in vivo for their ability to suppress airway hyperresponsiveness, lung eosinophilia and serum Ig levels using assays described above. […]

[3] = tritiated thymidine incorporation, read-out: PBMC Proliferation ASSAY IC50
[4] = FIG. 11 and FIG. 12, mitogen-stimulated lymphocytes, read-out: IC50 for suppression of lymphocyte aggregation and proliferation
[5] = tritiated thymidine incorporation

Row | Structure (SMILES) | minimal effective concentration [1] [µg/mL] | IC50 [2, 3] [µg/mL] | also measured
1 | C[C@@H](CC1CCOC1=O)C1CCC2C3CC[C@@H]4C[C@@H](NCCN)CC[C@]4(C)C3CC[C@@]21C (mixture of isomers) [Compound-K] | 10 | 0.31 (≈ 0.697 µM) | –
2 | COC(=O)CC[C@H](C)C1CCC2C3CC[C@@H]4C[C@@H](NCCNC(C)C)CC[C@]4(C)C3C[C@@H](O)[C@@]21C (some centres unmarked) [AA] | 10 | 0.42 (≈ 0.856 µM) | –
3 | COC(=O)CC[C@H](C)C1CCC2C3CC[C@@H]4C[C@@H](N)CC[C@]4(C)C3C[C@@H](O)[C@@]21C (some centres unmarked) [AB] | 10 | 2.54 (≈ 6.26 µM) | –
4 | COC(=O)CC[C@H](C)C1CCC2C3CC[C@@H]4C[C@@H](NCCN)CC[C@]4(C)C3C[C@@H](O)[C@@]21C (some centres unmarked) [AC] | 10 | 0.47 (≈ 1.05 µM) | –
5 | COC(=O)CC[C@H](C)C1CCC2C3C(CC[C@@]21C)[C@@]1(C)CC[C@H](NCCN)C[C@H]1C[C@@H]3OC(C)=O (some centres unmarked) [AD] | 10 | 0.29 (≈ 0.591 µM) | –
6 | COC(=O)CC[C@@H](C)C1CCC2C3C(CC[C@@]21C)[C@@]1(C)CC[C@H](N2CCNCC2)C[C@H]1C[C@H]3O (some centres unmarked) [AE] | 10 | 0.28 (≈ 0.59 µM) | –
7 | COC(=O)CC[C@H](C)C1CCC2C3C[C@@H](O)[C@@H]4C[C@@H](NCCCOCCCCOCCCN)CC[C@]4(C)C3CC[C@@]21C (some centres unmarked) [AF] | 10 | 2.41 (≈ 4.06 µM) | –
8 | COC(=O)CC[C@@H](C)C1CCC2C3C[C@@H](O)[C@H]4C[C@H](NCCN)CC[C@]4(C)C3CC[C@@]21C (some centres unmarked) [AG] | 10 | – | –
9 | COC(=O)CC[C@@H](C)C1CCC2C3CC[C@@H]4C[C@@H](NCCN)CC[C@]4(C)C3C[C@H](O)[C@@]21C (some centres unmarked) [AH] | 1 | 0.1 (≈ 0.223 µM) | –
10 | C[C@H](CCC(=O)O)C1CCC2C3CC[C@@H]4C[C@H](NCCN)CC[C@]4(C)C3C[C@H](O)[C@@]21C (some centres unmarked) [C] | > 10 | – | –
11 | COC(=O)CC[C@H](C)C1CCC2C3CC[C@@H]4C[C@@H](NCCCNCCCCNCCCN)CC[C@]4(C)C3CC[C@@]21C (some centres unmarked) [Compound-D] | 10 | – | suppression of bronchial hyperresponsiveness (D2 naive mice): effective in suppressing bronchial hyperresponsiveness; IC50 [2, 4]: 10 µg/mL (≈ 17.4 µM)
12 | C[C@@H](CNS(C)(=O)=O)C1CCC2C3CC[C@@H]4C[C@@H](NCCN)CC[C@]4(C)C3CC[C@@]21C (some centres unmarked) [Compound-F] | – | 2.88 (≈ 6.35 µM) | –
13 | C[C@@H](CNS(C)(=O)=O)C1CCC2C3CC[C@@H]4C[C@@H](NCCN)CC[C@]4(C)C3CC[C@@]21C (some centres unmarked) [Compound-G] | 10 | – | –
14 | COC(=O)NC[C@@H](C)C1CCC2C3CC[C@H]4C[C@@H](NCCN)CC[C@]4(C)C3CC[C@@]21C (some centres unmarked) [Compound-H] | – | 0.26 (≈ 0.6 µM) | PBMC Proliferation ASSAY IC50 [2, 5]: 0.44 µg/mL
15 | C[C@H](CC1CCOC1=O)C1CCC2C3CC[C@H]4C[C@@H](NCCN)CC[C@]4(C)C3CC[C@@]21C (some centres unmarked) [Compound-J] | 1 | 0.03 (≈ 0.0675 µM) | –
16 | C[C@H](CC1CCOC1=O)C1CCC2C3CC[C@H]4C[C@@H](N5CCCNCC5)CC[C@]4(C)C3CC[C@@]21C (some centres unmarked) [Compound-M] | 10 | – | –
17 | C[C@@H](COc1ccccn1)C1CCC2C3CC[C@@H]4C[C@@H](NCCN)CC[C@]4(C)C3CC[C@@]21C (some centres unmarked) [Compound-N] | – | – | Aggregation Assay Minimum Effective Conc. [1]: 1 to 10 µg/mL; PBMC Proliferation ASSAY IC50 [2, 5]: 0.06 µg/mL
18 | C[C@@H](COc1ccccn1)C1CCC2C3CC[C@@H]4C[C@@H](NCCN)CC[C@]4(C)C3CC[C@@]21C (some centres unmarked) [Compound-O] | – | – | Aggregation Assay Minimum Effective Conc. [1]: 10 µg/mL; PBMC Proliferation ASSAY IC50 [2, 5]: 0.25 µg/mL
19 | C[C@@H](COc1ccccn1)C1CCC2C3CC[C@@H]4C[C@@H](N5CCNCC5)CC[C@]4(C)C3CC[C@@]21C (some centres unmarked) [Compound-P] | > 10 | – | –
20 | C[C@H](CCC(=O)O)C1CCC2C3C(CC[C@@]21C)[C@@]1(C)CC[C@H](NCCN)C[C@H]1C[C@H]3O (some centres unmarked) [E] | > 10 | – | IC50 [2, 4]: > 10 µg/mL
21 | COC(=O)CC[C@H](C)C1CCC2C3CC(O)[C@@H]4C[C@@H](NCCNC(C)C)CC[C@]4(C)C3CC[C@@]21C (some centres unmarked) [R] | – | 0.24 (≈ 0.489 µM) | –
22 | COC(=O)CC[C@H](C)C1CCC2C3CC[C@@H]4C[C@@H](NCCN)CC[C@]4(C)C3CC[C@@]21C (some centres unmarked) [S] | 10 | < 0.1 | toxicity remark in PBMC Proliferation ASSAY [2]: toxic
23 | COC(=O)CC[C@H](C)C1CCC2C3C(O)C[C@@H]4C[C@@H](NCCN)CC[C@]4(C)C3CC[C@@]21C (some centres unmarked) [T] | 10 | 2.77 (≈ 6.17 µM) | –
24 | CC(C)OC(=O)CC[C@H](C)C1CCC2C3C(O)C[C@@H]4C[C@@H](NCCN)CC[C@]4(C)C3CC[C@@]21C (some centres unmarked) [U] | – | 0.4 (≈ 0.839 µM) | Aggregation Assay Minimum Effective Conc. [1]: 1 to 10 µg/mL
25 | CC(C)OC(=O)CC[C@H](C)C1CCC2C3C(O)C[C@@H]4C[C@@H](NCCN)CC[C@]4(C)C3CC[C@@]21C (some centres unmarked) [V] | – | – | Aggregation Assay Minimum Effective Conc. [1]: 10 µg/mL; PBMC Proliferation ASSAY IC50 [2, 5]: 0.41 µg/mL
26 | COC(=O)CC[C@H](C)C1CCC2C3CC[C@@H]4C[C@@H](NCCN5CCCC5)CC[C@]4(C)C3C[C@@H](O)[C@@]21C (some centres unmarked) [W] | 10 | – | –
27 | COC(=O)CC[C@H](C)C1CCC2C3CC[C@@H]4C[C@@H](NCc5ccccn5)CC[C@]4(C)C3C[C@@H](O)[C@@]21C (some centres unmarked) [X] | 10 | – | –
28 | COC(=O)CC[C@H](C)C1CCC2C3CC[C@@H]4C[C@@H](NCCNc5ccccc5)CC[C@]4(C)C3C[C@@H](O)[C@@]21C (some centres unmarked) [Y] | 10 | – | –
29 | COC(=O)CC[C@H](C)C1CCC2C3CC[C@@H]4C[C@@H](NCCC5CCCN5C)CC[C@]4(C)C3C[C@@H](O)[C@@]21C (some centres unmarked) [Z] | 10 | 0.71 (≈ 1.37 µM) | –

Reference: patent US7074778B2, “Asthma associated factors as targets for treating atopic allergies including asthma and related disorders” (Genaera Corporation, priority 1999, dated 2006)
